Laboratory results reported in US8779144B2, “Bicycloheteroaryl compounds as P2X7 modulators and uses thereof” (Evotec (US) Inc., priority 2006, dated 2014).

What was measured:
[1] = test system: IL-1β release from THP-1 cells; assay: IL-1β release assay in differentiated THP-1 cells stimulated with BzATP (ELISA); format: cell-based; conditions: Homo sapiens; for inhibition at 0.3 µM: 0.3 uM compound, BzATP 250 uM, read-out: IL-1β % Inhib. @ 0.3 uM.; for IC50: released IL-1β as in Example 9, four parameter logistic fit, read-out: IL-Iβ IC50
Experimental: THP-1 cells (ATCC Cat #285-IF-100) are plated in 96 well plates at a concentration of 200,000 cells per well and allowed to differentiate in RPMI-1640 media (ATCC Cat #30-2001) containing 10% FBS, 100 IU/mL penicillin, 100 ug/mL streptomycin, 100 ng/mL LPS and 100 ng/mL IFN-γ for 16 hours. Following differentiation, the cells are treated for an additional 2 hours in RPMI-1640 media containing 100 IU/mL penicillin, 100 ug/mL streptomycin and fresh LPS at 100 ng/mL. The cells are then pretreated for 30 minutes with the compound of interest at the appropriate concentration in RPMI media containing 100 IU/mL penicillin, 100 ug/mL streptomycin. Following the pretreatment 2′,3′-O-(4-benzoylbenzoyl)-adenosine 5′-triphosphate (Sigma Aldrich Cat # B6396) is added to a final concentration of 250 uM and the cells are incubated for an additional 45 minutes. 30 uL of cell supernatant is then collected and IL-113 levels determined via ELISA (R&D systems Cat. # HSLB50) according to manufacturer's recommendations using the Tecan Safire plate reader. Background adjusted IL-1β levels of drug treated and non-treated cells are used to calculate the percent inhibition. […]
The compounds set forth in Table 1 were tested for activity in a cellular model as described herein. Specifically, cells were pretreated with differing amounts of the compound under test and released IL-1β determined as in Example 9, above. Measurements were made and IC50 values, presented in Table 2, below, were determined by fitting the data to a four parameter logistic equation using GraphPad Prism software (GraphPad Software, Inc). The equation may be expressed by the following formula: Y=Bottom+(Top−Bottom)/(1+10^((LogEC50−X)*HillSlope)) Where X is the logarithm of concentration, Y is the response and Y starts at Bottom and goes to Top with a sigmoid shape.

[2] = Half-life in human liver microsomes (HLM); format: in vitro ADME; conditions: 1 μM compound, 0.78 mg/mL HLM, NADPH, pH 7.4, 37° C.
Experimental: Test compounds (1 μM) are incubated with 3.3 mM MgCl2 and 0.78 mg/mL HLM (HL101) in 100 mM potassium phosphate buffer (pH 7.4) at 37° C. on the 96-deep well plate. The reaction mixture is split into two groups, a non-P450 and a P450 group. NADPH is only added to the reaction mixture of the P450 group. An aliquot of samples of P450 group is collected at 0, 10, 30, and 60 min time point, where 0 min time point indicated the time when NADPH is added into the reaction mixture of P450 group. An aliquot of samples of non-P450 group is collected at −10 and 65 min time point. Collected aliquots are extracted with acetonitrile solution containing an internal standard. The precipitated protein is spun down in centrifuge (2000 rpm, 15 min). The compound concentration in supernatant is measured by LC/MS/MS system.
The half-life value is obtained by plotting the natural logarithm of the peak area ratio of compounds/internal standard versus time. The slope of the line of best fit through the points yields the rate of metabolism (k). This is converted to a half-life value using following equations: Half-life=ln 2/k

Row | SMILES | IC50 [1] [nM] | half-life at 1 μM [2] [min] | inhibition at 0.3 µM [1] [%]
1 | O=C(NCC1CCCCCC1)c1cccc2c(=O)n(C(CO)CO)ccc12 [Compound 2040] | 39.2 | 51 | > 76
2 | CC(=O)Nc1ccc(CN2CCc3c(ncnc3C(=O)NCC3CCCCC3)C2)cc1 [Compound 2015] |  |  | 0 to 25
3 | CC1(C)CC(C)(C)CC(O)(CNC(=O)c2cccc3c(=O)n(C(CO)CO)ccc23)C1 [Compound 2054] | 233 |  | 51 to 75
4 | Cc1ccc(C2(CNC(=O)c3ncnc4c3CCN(Cc3ccccc3)C4)CCCCC2)cc1 [Compound 2018] |  |  | 0 to 25
5 | O=C(NCC1CCCCC1)c1ncnc2c1CCN(Cc1ccc(Cl)cc1)C2 [Compound 2009] |  |  | 0 to 25
6 | O=C(NCC1(O)CCCCCC1)c1cccc2c(=O)n(CCO)ccc12 [Compound 2048, 2-(2-Hydroxy-ethyl)-1-oxo-1,2-dihydro-isoquinoline-5-carboxylic acid (1-hydroxy-cycloheptylmethyl)-amide] | 326 | 42.6 | 26 to 50
7 | COc1ccc(CN2CCc3c(ncnc3C(=O)NCC3CCCCC3)C2)cc1 [Compound 2012] |  |  | 0 to 25
8 | O=C(NCCc1ccccc1Cl)c1ncnc2c1CCN(Cc1ccccc1)C2 [Compound 2001] | > 1000 |  | 0 to 25
9 | O=C(NCC1CCCCCC1)c1cccc2c(=O)n(C3CC3)ccc12 [Compound 2070, 2-Cyclopropyl-1-oxo-1,2-dihydro-isoquinoline-5-carboxylic acid cycloheptylmethyl-amide] | 16.5 |  | > 76
10 | O=C(NCC12CC3CC(CC(C3)C1)C2)c1cccc2c(=O)[nH]ccc12 [Compound 2028, 1-Oxo-1,2-dihydro-isoquinoline-5-carboxylic acid (adamantan-1-ylmethyl)-amide] | 0.73 | 18.6 | > 76
11 | O=C(NCC1(O)CCCCCC1)c1cccc2c(=O)[nH]ccc12 [Compound 2030] | 79 | 23.4 | 51 to 75
12 | O=C(NCCc1ccccc1)c1ncnc2c1CCNC2 [Compound 2003] |  |  | 0 to 25
13 | Cn1ccc2c(C(=O)NCC3(O)CCCCCC3)cccc2c1=O [Compound 2032] | 48.6 | 22.8 | > 76
14 | O=C(NCC1CCCCCC1)c1cccc2c(=O)n(CC(O)CO)ccc12 (stereo not drawn) [Compound 2039, 2-(2,3-Dihydroxy-propyl)-1-oxo-1,2-dihydro-isoquinoline-5-carboxylic acid cycloheptylmethyl-amide] | 257 |  | 51 to 75
15 | O=C(NCC1CCCCC1)c1ncnc2c1CCN(Cc1ccncc1)C2 [Compound 2007] |  |  | 0 to 25
16 | COCC(O)Cn1ccc2c(C(=O)NCC3CCCCCC3)cccc2c1=O (stereo not drawn) [Compound 2044] | > 1000 |  | 0 to 25
17 | CC1(C)CCCC(O)(CNC(=O)c2ncnc3c2CCN(Cc2ccccc2)C3)C1 (stereo not drawn) [Compound 2017] |  |  | 0 to 25
18 | O=C(NCC1(O)CCCCCC1)c1cccc2c(=O)n(CC3CCOCC3)ccc12 [Compound 2034] | 133 | 15.6 | 51 to 75
19 | O=C(NCC1CCCCC1)c1ncnc2c1CCN(Cc1ccccc1Cl)C2 [Compound 2008] |  |  | 0 to 25
20 | CC1(C)CCCC(O)(CNC(=O)c2cccc3c(=O)n(CCO)ccc23)C1 (stereo not drawn) [Compound 2051] | 256 |  | 51 to 75
21 | Cc1ccc(CN2CCc3c(ncnc3C(=O)NCC3CCCCC3)C2)cc1 [Compound 2013] |  |  | 0 to 25
22 | O=C(NCC1CCCCC1)c1ncnc2c1CCN(Cc1cccc(Cl)c1)C2 [Compound 2011] |  |  | 0 to 25
23 | COCC(O)Cn1ccc2c(C(=O)NCC3(O)CCCC(C)(C)C3)cccc2c1=O (stereo not drawn) [Compound 2046] | > 1000 |  | 0 to 25
24 | CC1(C)CCCC(O)(CNC(=O)c2cccc3c(=O)n(CC(O)CO)ccc23)C1 (stereo not drawn) [Compound 2042] | 145 |  | 51 to 75

More lines, main results first:

Row | IC50 [1] [nM] | half-life at 1 μM [2] [min] | SMILES | inhibition at 0.3 µM [1] [%]
25 | 7.46 | 36 | C[C@H](C(N)=O)n1ccc2c(C(=O)NCC3CCCCCC3)cccc2c1=O [Compound 2062] | > 76
26 | 1.37 | 13.8 | O=C(NCC1(O)CCCCCC1)c1cccc2c(=O)n(Cc3ccc4c(c3)OCCO4)ccc12 [Compound 2033, 2-(2,3-Dihydro-benzo[1,4]dioxin-6-ylmethyl)-1-oxo-1,2-dihydro-isoquinoline-5-carboxylic acid (1-hydroxy-cycloheptylmethyl)-amide] | > 76
27 | 21 |  | C[C@H](C(N)=O)n1ccc2c(C(=O)NCc3ccc(Cl)c(C(F)(F)F)c3)cccc2c1=O [Compound 2058, 2-((R)-1-Carbamoyl-ethyl)-1-oxo-1,2-dihydro-isoquinoline-5-carboxylic acid 4-chloro-3-trifluoromethyl-benzylamide] | > 76
28 | 17.3 | 66 | C[C@@H](C(N)=O)n1ccc2c(C(=O)NCC3CCCCCC3)cccc2c1=O [Compound 2063] | > 76
29 | 654 |  | CC(C(N)=O)n1ccc2c(C(=O)NCC3CCCCCC3)cccc2c1=O (stereo not drawn) [Compound 2050] | 0 to 25
30 | 5.66 | 38.4 | CC(C)C(CO)n1ccc2c(C(=O)NCC3(O)CCCCCC3)cccc2c1=O (stereo not drawn) [Compound 2035, 2-(1-Hydroxymethyl-2-methyl-propyl)-1-oxo-1,2-dihydro-isoquinoline-5-carboxylic acid (1-hydroxy-cycloheptylmethyl)-amide] | > 76
31 | > 1000 |  | C[C@H](NC(=O)c1cccc2c(=O)n([C@@H](C)C(N)=O)ccc12)c1ccc(Cl)cc1 [Compound 2066] | 0 to 25
32 | 356 |  | Cc1ccc2c(c1C(=O)NCc1ccc(C(F)(F)F)c(F)c1)CCN(C(=O)C1CC1)C2 [Compound 2080] | 26 to 50
33 | 40.4 |  | O=C(NCc1ccc(Cl)c(C(F)(F)F)c1)c1cccc2c(=O)n(C(CO)CO)ccc12 [Compound 2053, 2-(2-Hydroxy-1-hydroxymethyl-ethyl)-1-oxo-1,2-dihydro-isoquinoline-5-carboxylic acid 4-chloro-3-trifluoromethyl-benzylamide] | > 76
34 | 162 |  | O=C(NCc1cccc(C(F)(F)F)c1F)c1cccc2c(=O)n(C3CC3)ccc12 [Compound 2077] | 51 to 75
35 | 214 |  | C[C@@H](C(N)=O)n1ccc2c(C(=O)NCc3ccc(Cl)c(Cl)c3)cccc2c1=O [Compound 2061] | 51 to 75
36 | 506 |  | C[C@@H](C(N)=O)n1ccc2c(C(=O)NCC3(O)CCCCCC3)cccc2c1=O [Compound 2056] | 26 to 50
37 | 667 |  | Cc1ccc2c(c1C(=O)NCc1ccc(C(F)(F)F)c(F)c1)CCN(C(=O)C1(C)CC1)C2 [Compound 2082] | 0 to 25
38 | 754 |  | O=C(NCc1ccc(C(F)(F)F)cc1)c1cccc2c(=O)n(C3CC3)ccc12 [Compound 2071] | 0 to 25
39 | 152 |  | O=C(NCc1ccc(F)c(Cl)c1)c1cccc2c(=O)n(C3CC3)ccc12 [Compound 2073] | > 76
40 | 269 |  | O=C(NCC1CCCCC1)c1cccc2c(=O)n(C(CO)CO)ccc12 [Compound 2055] | 51 to 75
41 | 573 | 31.8 | O=C(NCC1(O)CCCCCC1)c1cccc2c(=O)n(C(CO)CO)ccc12 [Compound 2047] | 26 to 50
42 | 59.2 |  | O=C(NCc1ccc(Cl)c(Cl)c1)c1cccc2c(=O)n(C3CC3)ccc12 [Compound 2072, 2-Cyclopropyl-1-oxo-1,2-dihydro-isoquinoline-5-carboxylic acid 3,4-dichloro-benzylamide] | > 76
43 | 107 |  | O=C(NCc1ccc(Cl)c(F)c1)c1cccc2c(=O)n(C3CC3)ccc12 [Compound 2074] | > 76
44 | 23 | 38.4 | CC1(C)CCCC(O)(CNC(=O)c2cccc3c(=O)n(C(CO)CO)ccc23)C1 (stereo not drawn) [Compound 2043] | > 76
45 | 26.1 |  | C[C@H](C(N)=O)n1ccc2c(C(=O)NCC3(O)CCCCCC3)cccc2c1=O [Compound 2057] | > 76
46 | 158 |  | O=C(NCc1ccc(F)c(C(F)(F)F)c1)c1cccc2c(=O)n(C3CC3)ccc12 [Compound 2075] | > 76
47 | 11.6 |  | O=C(NCC1CCCCCC1)c1cccc2c(=O)n(Cc3ccc4c(c3)OCCO4)ccc12 [Compound 2036] | > 76
